The values that follow are results of earlier work, collected in patent publication US7927486B2, “Polymer modified porous substrate for solid phase extraction” (priority 2005, dated 2011).

In the case of `CCCCNCC(O)c1ccc(O)cc1.CCCCNCC(O)c1ccc(O)cc1.O=S(=O)(O)O` (stereo not shown) [Bamathan hemisulfate], the “Log P” value is recorded as 1.29.

What is called Log P is a log measure of how a compound divides between an organic and an aqueous phase.
